Measurements: US5112852A, “Allenyl amines” (Merrell Dow Pharmaceuticals Inc., priority 1989, dated 1992)

Key:
hypertensive rats = assay: Antihypertensive activity in vivo, conscious hypertensive rats, mean blood pressure; details: 50 mg/kg (ip)
Method: The ability of compounds of this invention to lower blood pressure can be determined in vivo using hypertensive rats according to standard and well known procedures. The test compound is administered intraperitoneally (ip) to conscious rats and the blood pressure monitored continuously. Decreased mean blood pressure over time was observed when a compound of this invention was tested by the above described procedure, as indicated in Table II.

[1] = test system: dopamine-β-hydroxylase (DBH); assay: DBH inhibitory activity in vitro (time-dependent inactivation; oxygen uptake with tyramine substrate); type: biochemical; details: 1 mM, pH 4.5 to 5.5, preferably pH 5.0, 20-40° C., preferably 37° C., spread +/-1.1
Method: The DBH inhibitory properties of the compounds of this invention can readily be determined by standard and well known procedures such as those procedures set forth in U.S. Pat. No. 4,415,591. […] The test compound is added at the desired concentration, and the system is incubated. At different time intervals aliquots are taken and DBH activity is measured using tyramine as the substrate. The reaction is followed by measuring oxygen uptake using a polarographic electrode and an oxygen monitor by the method of S. May, et al., J. Biol. Chem. 256, 2258 (1981).

t 1/2 (time required for 50% inhibition) [1]: 1.3 h
SMILES: C=C=C(CN)c1cccs1 [β-ethenylidene-2-thiopheneethanamine, β-Ethenylidene-2-thiopheneethanamine]
Maximum % Change in mean Blood Pressure (hypertensive rats; decrease per text): 15.6%
Duration (hypertensive rats; duration of blood pressure change): 10 h
